Reference: US9351986B2, “Calicheamicin derivative-carrier conjugates” (priority 2002, dated 2016)

Test system: Fc-CD22
Test: BIACORE blocking of murine anti-CD22 mAbs by G5/44 on immobilized Fc-CD22
Assay type: binding
Conditions: Fc-CD22 saturated with G5/44 (100 μg/ml), before murine mAb
Procedure: Whether or not G5/44 can inhibit the binding of murine mAbs of known specificity to CD22 was evaluated by BIACORE™ analysis using Fc-CD22 immobilized to a BIACORE™ CM5 chip. The surface plasmon resonance units (RU) obtained with and without prior saturation of the immobilized Fc-CD22 with G5/44 were compared. Biomolecular interaction analysis was performed using a BIACORE™ 2000. Antibodies were passed over a blank control surface (flowcell 1, serves as a control, no protein was coupled) and the test surface of Fc-CD22 (flowcell 2) immobilized on a CM5 sensor chip via amine coupling chemistry to a level of 9,042 RU. The resultant sensorgram was the response (RU) on flowcell 2 minus the response (RU) on flowcell 1. A second sensorgram was obtained by first saturating the flowcells with G5/44 (100 μg/ml) before the introduction of murine mAbs against CD22 that had been previously characterized for their binding. Immediately upon measuring the G5/44 response, murine anti-CD22 mAbs were individually perfused without removing G544. The second combined response generated due to the binding of murine anti-CD22 mAb to G5/44-coated CD22 was also recorded. If the murine antibody bound to CD22 at sites unrelated to those occupied by G5/44, then the combined responses would be additive. […]

Sequence of Fc-CD22 (P20273 20-416 limits assumed): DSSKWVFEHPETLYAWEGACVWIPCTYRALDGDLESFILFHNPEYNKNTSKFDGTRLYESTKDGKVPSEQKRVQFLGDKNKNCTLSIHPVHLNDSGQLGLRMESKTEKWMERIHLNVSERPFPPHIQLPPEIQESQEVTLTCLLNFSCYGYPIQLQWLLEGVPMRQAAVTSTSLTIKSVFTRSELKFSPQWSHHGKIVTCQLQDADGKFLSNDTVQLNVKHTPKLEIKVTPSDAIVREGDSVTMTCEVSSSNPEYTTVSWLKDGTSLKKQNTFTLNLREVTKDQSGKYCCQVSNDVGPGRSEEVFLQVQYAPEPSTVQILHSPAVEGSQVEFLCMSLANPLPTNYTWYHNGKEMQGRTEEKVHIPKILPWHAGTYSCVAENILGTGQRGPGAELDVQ

With “5/44: murine anti-CD22 monoclonal antibody, the murine parent of G5/44” the “Response 1 with G544” value was 725.1 RU.
